Results: patent US20250270212A1, “CHIMERIC COMPOUNDS USEFUL IN TREATING DISEASES” (Padarn Therapeutics, Inc., priority 2021, published 2025)

Target: recombinant PARP1 (AA662-1014) protein (Homo sapiens (Human), UniProt P09874)
Experiment: Tracer displacement fluorescence polarization assay
Settings: displacement of AlexaFluor488 tracer from NAD+-binding site, PARP1 25 nM
Protocol: Example B. Tracer Displacement Fluorescence Polarization Assays
Displacement of AlexaFlour488 marked tracer from the NAD+-binding site of recombinant PARP1 (AA662-1014) protein (OriGene, Cat #: AR09368PU-L) was measured in vitro using Fluorescence polarization assay. The reaction was carried out in assay buffer (50 mM TRIS-HCl pH 7.4-7.8, 150 mM NaCl, 10 mM MgCl2, 0.001% Triton-X). 2×PARP1 (final concentration 25 nM) was diluted in 1× Assay buffer and 10 μl of the solution per well was added into 384-well Black Non-Treated Reaction plate (Corning, Cat #4511). Plates were centrifuged for 1 min at 200 g. The compounds were prepared in a 384-well Diamond Well Plate (Axygen, Cat #P-384-120SQ-C-S) as 400× solutions in DMSO and were transferred into Reaction plate using the Biomek FX liquid handling system with intermediate dilution down to 10× working solution in assay buffer in a separate 384-well Diamond Well Plate (Axygen, Cat #P-384-120SQ-C-S) (2 μl per well). Plates were centrifuged for 1 min at 200 g and incubated for 15 min at room temperature in the dark. Then 8 μL per well of 2.5× Tracer AlexaFluor488 (final concentration 1 nM) diluted in 1× Assay buffer was added into Reaction plate. 1× Assay buffer was used to make blank samples for instrument calculations. Plates were incubated for 30 minutes at room temperature in the dark. Fluorescence polarization was measured using Microplate Reader (BMG, ClarioStar Plus). The % tracer displacement was used to calculate the IC50 values. The IC50 values are shown in Table A, wherein “A” corresponds to IC50<0.01 μM, “B” corresponds to 0.01 μM≤IC50<0.1 μM, “C” 0.1 μM≤IC50<[…], and “D” corresponds to […].

recombinant PARP1 (AA662-1014) protein, sequence (P09874 662-1014): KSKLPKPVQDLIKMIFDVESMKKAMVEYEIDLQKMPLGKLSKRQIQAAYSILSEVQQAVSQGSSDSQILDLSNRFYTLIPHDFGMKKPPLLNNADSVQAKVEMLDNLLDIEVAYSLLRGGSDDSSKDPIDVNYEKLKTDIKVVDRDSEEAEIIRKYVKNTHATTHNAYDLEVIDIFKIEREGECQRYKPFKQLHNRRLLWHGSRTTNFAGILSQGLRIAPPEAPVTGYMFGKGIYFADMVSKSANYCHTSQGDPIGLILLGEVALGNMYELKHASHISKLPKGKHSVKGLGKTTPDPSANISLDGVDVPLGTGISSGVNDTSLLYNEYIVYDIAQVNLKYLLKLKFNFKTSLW

SMILES	EC50 [nM]
Cn1c(=O)c2cnc(N3CCN(C(=O)c4cc(Cc5n[nH]c(=O)c6ccccc56)ccc4F)CC3)nc2n1-c1ccccn1 [Compound 5, 4-(4-Fluoro-3-{[4-(2-methyl-3-oxo-1-pyridin-2-yl-2,3-dihydro-1H-pyrazolo[3,4-d]pyrimidin-6-yl)piperazin-1-yl]carbonyl}benzyl)phthalazin-1(21)-one]	10 to 100
C=CCn1c(=O)c2cnc(N3CCN(C(=O)c4cc(Cc5n[nH]c(=O)c6ccccc56)ccc4F)CC3)nc2n1-c1cccc(C(C)(C)O)n1 [Compound 2, 4-{3-[(4-{2-Allyl-1-[6-(1-hydroxy-1-methylethyl)pyridin-2-yl]-3-oxo-2,3-dihydro-1H-pyrazolo[3,4-d]pyrimidin-6-yl}piperazin-1-yl)carbonyl]-4-fluorobenzyl}phthalazin-1(2H)-one]	10 to 100
Cn1c2nc(Nc3ccc(N4CCN(C(=O)c5cc(Cc6n[nH]c(=O)c7ccccc67)ccc5F)CC4)cc3)ncc2c(=O)n1-c1ccccn1 [Compound 12, 4-{4-Fluoro-3-[(4-{4-[(1-methyl-3-oxo-2-pyridin-2-yl-2,3-dihydro-1H-pyrazolo[3,4-d]pyrimidin-6-yl)amino]phenyl}piperazin-1-yl)carbonyl]benzyl}phthalazin-1(2H)-one]	< 10
Cn1c(=O)c2cnc(Nc3ccc(N4CCN(Cc5cc(Cc6n[nH]c(=O)c7ccccc67)ccc5F)CC4)cc3)nc2n1-c1cccc(C(C)(C)O)n1 [Compound 8, 4-[4-Fluoro-3-({4-[4-({1-[6-(1-hydroxy-1-methylethyl)pyridin-2-yl]-2-methyl-3-oxo-2,3-dihydro-1H-pyrazolo[3,4-d]pyrimidin-6-yl}amino)phenyl]piperazin-1-yl}methyl)benzyl]phthalazin-1(2H)-one]	100 to 1000
Cn1c(=O)c2cnc(Nc3ccc(N4CCN(C(=O)c5cc(Cc6n[nH]c(=O)c7ccccc67)ccc5F)CC4)cc3)nc2n1-c1cccc(C(C)(C)O)n1 [Compound 7, 4-[4-Fluoro-3-({4-[4-({1-[6-(1-hydroxy-1-methylethyl)pyridin-2-yl]-2-methyl-3-oxo-2,3-dihydro-1H-pyrazolo[3,4-d]pyrimidin-6-yl}amino)phenyl]piperazin-1-yl}carbonyl)benzyl]phthalazin-1(2H)-one]	< 10
C=CCn1c(=O)c2cnc(NC3CCN(C(=O)c4cc(Cc5n[nH]c(=O)c6ccccc56)ccc4F)CC3)nc2n1-c1cccc(C(C)(C)O)n1 [Compound 4, 4-(3-{[4-({2-Allyl-1-[6-(1-hydroxy-1-methylethyl)pyridin-2-yl]-3-oxo-2,3-dihydro-1H-pyrazolo[3,4-d]pyrimidin-6-yl}amino)piperidin-1-yl]carbonyl}-4-fluorobenzyl)phthalazin-1(2H)-one]	100 to 1000
C=CCn1c(=O)c2cnc(NCCNC(=O)c3cc(Cc4n[nH]c(=O)c5ccccc45)ccc3F)nc2n1-c1cccc(C(C)(C)O)n1 [Compound 6, N-[2-({2-Allyl-1-[6-(1-hydroxy-1-methylethyl)pyridin-2-yl]-3-oxo-2,3-dihydro-1H-pyrazolo[3,4-d]pyrimidin-6-yl}amino)ethyl]-2-fluoro-5-[(4-oxo-3,4-dihydrophthalazin-1-yl)methyl]benzamide]	100 to 1000

Further lines, results first:

EC50 [nM]	SMILES
100 to 1000	C=CCn1c(=O)c2cnc(Nc3ccc(N4CCN(Cc5cc(Cn6c(=O)[nH]c(=O)c7c(F)cccc76)ccc5F)CC4)cc3)nc2n1-c1cccc(C(C)(C)O)n1 [Compound 34, 1-[3-({4-[4-({2-Allyl-1-[6-(1-hydroxy-1-methylethyl)pyridin-2-yl]-3-oxo-2,3-dihydro-1H-pyrazolo[3,4-d]pyrimidin-6-yl}amino)phenyl]piperazin-1-yl}methyl)-4-fluorobenzyl]-5-fluoroquinazoline-2,4(1H,3H)-dione]
10 to 100	C=CCn1c(=O)c2cnc(Nc3ccc(N4CCN(Cc5ccc(-c6[nH]c7cc(F)cc8c7c6CCNC8=O)cc5)CC4)cc3)nc2n1-c1ccccn1 [Compound 39, 2-[4-[[4-[4-[[2-Allyl-3-oxo-1-(2-pyridyl)pyrazolo[3,4-d]pyrimidin-6-yl]amino]phenyl]piperazin-1-yl]methyl]phenyl]-6-fluoro-3,10-diazatricyclo[6.4.1.04,13]trideca-1,4,6,8(13)-tetraen-9-one]
< 10	C=CCn1c(=O)c2cnc(NC3CCN(Cc4ccc(-c5[nH]c6cc(F)cc7c6c5CCNC7=O)cc4)CC3)nc2n1-c1cccc(C(C)(C)O)n1 [Compound 47, 2-(4-{[4-({2-Allyl-1-[6-(1-hydroxy-1-methylethyl)pyridin-2-yl]-3-oxo-2,3-dihydro-1H-pyrazolo[3,4-d]pyrimidin-6-yl}amino)piperidin-1-yl]methyl}phenyl)-8-fluoro-1,3,4,5-tetrahydro-6H-azepino[5,4,3-cd]indol-6-one]
10 to 100	Cn1c2nc(Nc3ccc(N4CCC(c5nc6cccc(C(N)=O)c6[nH]5)CC4)cc3)ncc2c(=O)n1-c1ccccn1 [Compound 91]
< 10	Cn1c2nc(Nc3ccc(N4CCN(C(=O)c5cc(Cn6c(=O)[nH]c(=O)c7c(F)cccc76)ccc5F)CC4)cc3)ncc2c(=O)n1-c1ccccn1 [Compound 17, 5-Fluoro-1-{4-fluoro-3-[(4-{4-[(1-methyl-3-oxo-2-pyridin-2-yl-2,3-dihydro-1H-pyrazolo[3,4-d]pyrimidin-6-yl)amino]phenyl}piperazin-1-yl)carbonyl]benzyl}quinazoline-2,4(1H,3H)-dione]
< 10	C=CCn1c(=O)c2cnc(Nc3ccc(N4CCN(C(=O)c5cc(Cn6c(=O)[nH]c(=O)c7c(F)cccc76)ccc5F)CC4)cc3)nc2n1-c1ccccn1 [Compound 28, 1-{3-[(4-{4-[(2-Allyl-3-oxo-1-pyridin-2-yl-2,3-dihydro-1H-pyrazolo[3,4-d]pyrimidin-6-yl)amino]phenyl}piperazin-1-yl)carbonyl]-4-fluorobenzyl}-5-fluoroquinazoline-2,4(1H,3H)-dione]
